Results on 3 substances are retold here after patent publication US20120270778A1, “Compositions and Methods for Non-Invasive Treatment of Chronic Complications of Diabetes” (Aegis Therapeutics LLC, priority 2009, published 2012).

Data set [1] concerns diabetes-induced hyperfiltration. The note with it: in vivo; cited from earlier work.
A short description of data set [2]: Serum insulin and C-peptide levels after nasal administration of combined formulations to rats. In kind it is in vivo. Here is the method:
Test System—Sprague Dawley rats, females; 325 grams are used throughout this study. Rats are anesthetized by isoflurane/O2 mixture. To a first and second group of three rats each is administered vehicle containing C-peptide concentration of 1 and 10 mg/mL as described in Example 1 to which is added 0.1% benzallconium chloride as a preservative. To a third and fourth group of 3 rats each is administered vehicle containing C-peptide concentration of 1 and 10 mg/mL as described above to which is added 45 mg/mL methyl-beta-cyclodextrin (Sigma-Aldrich). […]
Analysis Procedure—The serum was frozen at approximately −70° C. in pre-labeled, plastic tubes, and tightly capped, and stored at approximately −70° C. until ready for testing. […]
Solutions prepared as described in Example 3 were administered nasally to rats and tested as described in Example 2 except with the addition that serum human insulin determinations were made using the Human Insulin ELISA Kit™ from Diagnostic Systems Laboratories, Inc, Webster, Tex. The relative molar ratios of insulin to C-peptide in serum for each formulation was calculated by taking the ratio of the insulin concentration to the C-peptide concentration at a fixed time point. In Table 2 below, ratios of the concentrations of insulin and C-peptide for concentrations measured at two time points, namely 20 min. and 40 min. post nasal instillation. […]

Data set [3] has as its system rat model of type 1 diabetes. Particulars: cited from earlier work.
A further data set deals with type 1 diabetes. The note with it: human; cited from earlier work.
The subject of data set [4] is patients with early-stage type 1 diabetic neuropathy. Particulars: treatment for 6 months; cited from earlier work.
For the next data set, the system named is islet cell. The note with it: cited from earlier work.
Another data set addresses insulin (Homo sapiens, UniProt P01308). The note with it: cited from earlier work.
For the next data set, the system named is normal and diabetic mice. Particulars: repressed by insulin; cited from earlier work.
The conditions of data set [5]: in vivo, inhaled or intranasal; cited from earlier work.

Chain of insulin (P01308 25-54 limits assumed, species assumed): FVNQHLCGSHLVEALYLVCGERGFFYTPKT
Chain of insulin (P01308 90-110 limits assumed, species assumed): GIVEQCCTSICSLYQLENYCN

Take EVARQ: in [1], the “effect on diabetes-induced hyperfiltration, renal hypertrophy and albuminuria” value was “reduce diabetes-induced hyperfiltration, as well as renal hypertrophy and albuminuria”.
As to Proinsulin C-Peptide (55-89), human, the “rate of absorption relative to insulin” value in data set [2] is reported as “slightly, but not significantly, more rapidly than insulin”. Also, the effect on neuropathy result in [3] is recorded as “improves neuropathy”. The “effect on diabetes-induced renal and nerve dysfunction” value with type 1 diabetes was “amelioration of diabetes-induced renal and nerve dysfunction”. Besides, the “effect on diabetes-induced hyperfiltration, renal hypertrophy and albuminuria” value in data set [1] was “reduce diabetes-induced hyperfiltration, as well as renal hypertrophy and albuminuria”. For the same substance, the “effect on sensory nerve function” value in data set [4] is “improved sensory nerve function”. Also, the “effect on islet cell apoptosis” value in the data set on islet cell is given as “decreases islet cell apoptosis”. On insulin, the “effect on insulin aggregation” value was “elicit disaggregation of insulin”. Moreover, the antithrombotic effects entry with normal and diabetic mice is recorded as “exerts antithrombotic effects”.
As to salmon calcitonin, the “systemic bioavailability by intranasal route” value in data set [5] is listed as 3%.
